Source: patent US20120028897A1, “METHODS AND COMPOSITIONS FOR THE TREATMENT OF FLUID RETENTION DISORDERS” (priority 2008, published 2012)

Assay: Urinary excretion and isomer identity after iv infusion (T84 bioassay and LC-MS of urine)
Format: in vivo, rat
Settings: for stability of identity and properties in vivo: infused rats; for GC-C stimulating activity recovered in urine: T84 bioassay
Experimental: FIG. 3A is a graph showing urinary excretion of “UgnA like” activity as a function of time in animals treated with the either huUgnA (filled symbols) or huUgnB (open symbols). huUgn was infused into an anesthetized rat during the period indicated by the horizontal bar. […] A sample of the urine acquired during each clearance period was evaluated for activity in the T84 cell bioassay. The resulting cyclic GMP responses were then converted to apparent recoveries of “UgnA-like” peptide by interpolation on a huUgnA standard curve (constructed as in FIG. 1A). Appropriate dilutions were chosen to ensure that the activity in each sample would not saturate this assay.
After post-surgical equilibration (−60 min) and three 20 min control clearance periods, huUgnA or B was infused into the jugular vein at 10 μl/min over a 60 min period, followed by a return to isotonic saline for the remainder of the experiment. The infused doses of huUgnA were 12, 25, 50, 100, or 200 nmol/kg BW in a total of 38 rats; huUgnB doses were 9, 18, 35, 70, and 140 nmol/kg BW in 35 rats. A UgnA mimetic, E. coli STh (ST-core), was infused into a third group of 32 rats at doses of 17, 32, 66, 133, and 266 nmol/kg. Renal excretory responses to these infusions were slow to develop and long lasting, so clearance periods were continued for 2-3 hr after the termination of the peptide infusion. This protracted time course limited protocols to one dose of one peptide in each rat. A control group of 10 rats received isotonic saline at 10 μl/min in place of the peptide infusion, but was otherwise treated in the same way as the experimental groups.
HPLC analysis and mass spectroscopy of Ugn isomers. The integrity and purity of huUgnA and B isomer preparations were confirmed by liquid chromatography/mass spectroscopy (LC-MS) analysis. The two Ugn isomers have different retention times on a reverse phase HPLC column (FIG. 1, dashed trace; huUgnA elutes ˜0.35 minutes before huUgnB). Separations were performed on a Hypersil Gold AQ 2.1×50 mm column from Thermo Fisher Scientific Inc (Waltham, Mass.) equilibrated in 98% buffer A (0.1% formic acid), 2% buffer B (85:10:5 Acetonitrile/Isopropyl Alcohol/5 mM NH4OAc pH 5.8) with a flow rate of 0.4 ml/min on an Acquity HPLC system. After a 2.5 minute wash with the same buffers, peptides were eluted with a linear gradient of 2% buffer B to 80% buffer B over 25 minutes and held for one minute before an increase to 90% B over 2 minutes to wash the column, followed by a return to 2% buffer B over 3 minutes.
Peptide masses were determined using a Micromass Q-T of II instrument equipped with an electrospray ionization (ESI) source operating in positive ion mode. The instrument was programmed to scan in the mass range of m/z 100 to 1800. Molecular weight predictions and data analysis were carried out with MassLynx version 4.0 software. […] were injected directly without any sample preparation using an Acquity HPLC system connected in line with the Q-T of II.
Bioassay of huUgnA-like activity. The concentration of huUgnA-like bioactivity in infused peptide solutions and in urine collected during experiments was measured using a T84 cell-based bioassay, as described previously. T84 cells are a colon carcinoma cell line that increases cyclic GMP production in response to GC-C receptor agonists such as Ugn, Gn and ST core peptide. T84 cells were grown to near confluence in 12 well culture clusters, and then incubated with unknowns or standard concentrations of huUgnA. Standards or urine samples were diluted into bioassay medium (1 mM 3-isobutyl-1-methylxanthine, 0.03 mM phenol red, 137 mM NaCl, 5.4 mM KCl, 0.25 mM Na2HPO4, 0.44 mM KH2PO4, 1.3 mM CaCl2, 1.0 mM MgSO4, 4.2 mM NaHCO3, 10 mM HEPES buffered at pH 7.0) and the pH was adjusted to 7.0, if required, using the phenol red indicator dye as a guide. This pH adjustment was necessary, as it is well-established that the response of T84 cells to UGn is highly pH dependent. […]

Structure (SMILES) | stability of identity and properties in vivo | isomerization in vivo, LC-MS of urine at peak peptide excretion (iv infusion, anesthetized rat) | return of urinary GC-C stimulating activity to baseline after infusion was terminated (iv infusion, anesthetized rat) | time to appearance of GC-C stimulating activity in urine from start of infusion (iv infusion, anesthetized rat) | GC-C stimulating activity recovered in urine (iv infusion, anesthetized rat)
CC(C)C[C@H](NC(=O)[C@@H]1CSSC[C@@H]2NC(=O)[C@H](CC(C)C)NC(=O)[C@H](CCC(=O)O)NC(=O)[C@@H](NC(=O)[C@H](CC(=O)O)NC(=O)[C@H](CC(=O)O)NC(=O)[C@@H](N)CC(N)=O)CSSC[C@H](NC(=O)[C@H](C)NC(=O)[C@H](C(C)C)NC(=O)[C@H](CC(N)=O)NC(=O)[C@H](C(C)C)NC2=O)C(=O)N[C@@H]([C@@H](C)O)C(=O)NCC(=O)N1)C(=O)O (single isomer, unassigned) [huUgnA, Asn Asp Asp Cys Glu Leu Cys Val Asn Val Ala Cys Thr Gly Cys Leu, reference compound] | sufficiently stable for use in acute animal studies | essentially no isomerization had occurred | within an hour | ≤ 20 min | a significant amount
CC(C)C[C@H](NC(=O)[C@@H]1CSSC[C@@H]2NC(=O)[C@H](CC(C)C)NC(=O)[C@H](CCC(=O)O)NC(=O)[C@@H](NC(=O)[C@H](CC(=O)O)NC(=O)[C@H](CC(=O)O)NC(=O)[C@@H](N)CC(N)=O)CSSC[C@H](NC(=O)[C@H](C)NC(=O)[C@H](C(C)C)NC(=O)[C@H](CC(N)=O)NC(=O)[C@H](C(C)C)NC2=O)C(=O)N[C@@H]([C@@H](C)O)C(=O)NCC(=O)N1)C(=O)O (single isomer, unassigned) [huUgnB, Asn Asp Asp Cys Glu Leu Cys Val Asn Val Ala Cys Thr Gly Cys Leu] | sufficiently stable for use in acute animal studies | a clearly discernable huUgnB signal along with a barely detectible huUgnA signal | – | – | very little
